The test system of assay [1] is HCT116 p53^−/− cells. Briefly: Co-culture cell viability / competition assay of H2B-GFP HCT116 p53+/+ and H2B-RFP HCT116 p53−/− cells. Format: cell-based.
Method: Stably expressing H2B-GFP-HCTp53^+/+ cell (wild type p53 cells) and H2B-RFP-HCTp53^−/− cells (cells lacking p53) were grown in co-culture to screen drug compounds sensitizing either wild type p53 cells or p53-negative cells. Briefly, 200 cells of each
HCT116p53^+/+ and HCT116p53^−/− were plated in a pre-coated 384-well drug plates at final cell density of 400 cells per well at a final volume of 80 μl per well. After plating cells into respective wells, plates were incubated for 6 days. After 6 days of drug incubation, plates were imaged in an Incell Analyzer 200 machine by performing a multi-channel read, that is applying FITC staining to count GFP positive cells and Texas Red staining to count RFP positive cells. After imaging, the raw data was processed through the Incell-Investigator software to count the number of GFP positive and RFP positive cells.
Wildtype HCT116 cells expressing H2B-GFP were co-cultured with HCT115 p53^−/− cells expressing H2B-RFP. […]
2000 cells each of H2B-GFP-HCT116p53^+/+ and H2B-RFP-HCT116p53^−/− were grown as co-culture in 96-well plates in a total volume of 100 ∥l. […] After 6 days of recovery, the cells were imaged in an Incell Analyzer 2000 machine and the percentage of viable cells was determined and plotted against the drug concentrations used in the experiment.
Assay [2] deals with HCT116 p53^−/− cells. Nature of the assay: Colony forming assay (crystal violet) in isogenic HCT116 cell lines. Type of assay: cell-based. Conditions: 0.5-3 μM, 48 hours of drug treatment, recovery.
The test system of assay [3] is Human skin fibroblast cells (TOBA cells). Nature of the assay: Cell viability (light microscopy) and Annexin V apoptosis assay in p53-depleted human skin fibroblast cells. Format: cell-based. As to the method:
Human skin fibroblast cells (TOBA cells) were infected either with a control shRNA lentivirus or a p53-targeting shRNA virus (as described in the preceding section). After generation of a stable p53-knockdown (using puro selection), cells were analysed for cell viability in response to different doses of niclosamide. Briefly, wild type Toba cells, and p53 depleted cells were plated at 20,000 cell density in 6 well plates. Next day, cells were either DMSO treated or treated with varying doses of niclosamide. After 48 hours of drug incubation, the drug containing media was replaced with new cell culture medium to start recovery. After 8 days of recovery, the cells were imaged in light microscope at 10× objective lens.
As described above, DMSO and niclosamide-treated cells were analysed for the presence of apoptotic cell death by Annexin V staining. All cells in a well, including both rounded floating (that is, dead or dying cells) and adherent cells (that is, live cells) were collected carefully by trypsinisation and centrifuged at 400 g for 5 minutes. The pellet was resuspended in 200 μl of incubation buffer and after re-suspension, centrifuged at same speed as above to collect the washed sample pellets. […]

Assay [4] has as its system p53-deficient HCT116 spheroid. Nature of the assay: 3D spheroid growth of co-cultured HCT116 p53+/+ and p53−/− cells. Type of assay: cell-based. Conditions: 48 hours drug incubation, 6 more days culture. Here is the method: H2B-GFP- HCT116p53^+/+ and H2B-RFP-p53^−/− cells were grown as co-culture in a ultralow attachment 96-well cell culture plates to promote the spheroid formation. Briefly, to generate 3D multicellular spheroids, H2B-GFP expressing wild type (WT) p53 cells and H2B-RFP expressing p53-negative cells were each seeded at 250 cells per 100 ∥l culture media into 96-well round-bottomed plate and spun down (1000 g, 5 min). The seeded cells were cultured for two days in 5% CO2 humidified atmosphere at 37° C. On third day, cells were either DMSO treated or treated with different doses of niclosamide. After 48 hours of drug incubation, spheroids were diluted to non-toxic concentrations via media exchange. Treated spheroids were then further cultured for 6 more days. Spheroids were imaged in Incell analyser 2000 with FITC and Texas-Red channels.

Assay [5] deals with p53 null and p53 mutant cancer cells. Nature of the assay: Apoptotic cell death assays in p53 null and p53 mutant cancer cell lines. Format: cell-based. Conditions: data not shown. Here is the method:
To this end, various cancer cell lines/types were seeded according to their growth rate to be confluent at the same time. These cell lines were each treated with differing niclosamide concentrations for 48 hours. The cells were then allowed to recover in their respective media for 6 days, after which apoptotic cell death assays were performed. The resulting percentage of apoptotic cells in each sample were plotted on a 3D graph (data not shown).

Assay [6] has as its system Mouse embryonic stem cells harbouring a p53K0 mutation. Nature of the assay: Teratoma growth in nude mice from mouse embryonic stem cells pre-treated with niclosamide. Type of assay: in vivo. Conditions: mES cells treated with 2 μM for 48 hours before injection into nude mice; tumours observed after 24 days / 3 weeks. Here is the method: Mouse embryonic stem cells harbouring a p53K0 mutation were either treated with DMSO or treated with niclosamide at a concentration of 2 μM for 48 hours. The resulting trypsinised cells were then resuspended in Phosphate buffer Saline. The cells were counted and resuspended to result in a final cell concentration of 1×10^6 cells/100 μl. Immediately after counting, the cells were transferred to animal facility for nude mice injection. 100 μl of DMSO treated cells were injected into the right inguinal region, while 100 μl niclosamide treated cells were injected into the left inguinal region of each mouse. After 24 days of the injection, tumour growth was observed. The resulting teratomas were surgically removed analysed to observe the ability of niclosamide to inhibit tumour growth. […] Therefore, an in vivo tumour model in nude mice was utilised. As a control, mouse embryonic stem (mES) cells were injected into nude mice and the mice monitored for the presence of tumour growth (teratomas). mES cells treated with niclosamide or DMSO treated control cells were injected into nude mice and tumour growth monitored after 3 weeks.

Assay [7] has as its system ovarian tumour samples derived from patient biopsy samples. Nature of the assay: Patient-derived ovarian tumour xenograft mouse model. Conditions: 150 mg/kg once, intravenously; 30 days post treatment. Type of assay: in vivo. As to the method: Experiments were also performed using a patient-derived xenograft mouse model. In these experiments, ovarian tumour samples derived from patient biopsy samples were implanted into either the left or right flank of the mouse. These tumours were allowed to establish in the mouse and the tumour volume was measured according to standard practice every 2 days post implantation. After reaching a minimum threshold size of about 200 mm^3, the mice were treated once, intravenously, with niclosamide at a concentration of 150 mg/kg. The change in tumour volume was measured for further 30 days post treatment.
For orientation: A xenograft is tissue or cells of one species grown in another, often human tumour cells in immunodeficient mice.

The subject of assay [8] is mouse embryonic fibroblast (MEF) cells harbouring p53 mutations (+/R172 or R172/R172). Briefly: Niclosamide sensitivity of mouse embryonic fibroblast (MEF) cells with wild type or mutant p53. Type of assay: cell-based. Conditions: p53 +/R172 or R172/R172 versus wild type.
The next assay has as its system Caspase-3. Nature of the assay: Caspase-3 immunoblot of niclosamide-treated HCT116 cells. Type of assay: cell-based. Conditions: HCT116 wild type p53 versus p53 deficient. Here is the method:
Like human fibroblast cells, these cells were also tested for apoptotic cell death, the data of which is shown in the graphs shown in FIG. 4B). […] Both HCT116 cells with wild type p53 and those which were p53 deficient were treated with niclosamide, and protein samples were immunoblotted with Caspase-3 antibody.
(A western blot detects proteins with antibodies after separation by electrophoresis.)

This note sets out measurements from patent publication US20180271809A1, “USE OF NICLOSAMIDE IN THE TREATMENT OF P53-DEFICIENT CELLS” (AGENCY FOR SCIENCE, TECHNOLOGY AND RESEARCH, priority 2015, published 2018).

As to `O=C(Nc1ccc([N+](=O)[O-])cc1Cl)c1cc(Cl)ccc1O` [niclosamide, 2′,5-dichloro-4′-nitrosalicylanilide], in the assay on HCT116 p53^−/− cells [1] (after 48 hours of drug treatment, compared with DMSO controls), the “cell viability, HCT116 p53−/− versus HCT116 p53 wildtype (cell viability assay)” value was “decrease in the viability of HCT116 p53^−/− cells to a greater extent than the HCT116 p53 wildtype cells”. For the same compound, the “selective targeting in chemical biology screen (relative percentages of GFP and RFP cells)” value with HCT116 p53^−/− cells [1] (co-culture, 48 hours treatment, 7 days recovery in drug free media) was “selectively targeting HCT116 p53^−/− cells”. Further, the “cell viability, HCT116 p53−/− versus HCT116 p53 wildtype (colony formation assay)” value in the assay on HCT116 p53^−/− cells [2] was “decrease in the viability of HCT116 p53^−/− cells to a greater extent than the HCT116 p53 wildtype cells”. Moreover, the “apoptosis (Annexin V) in p53-deficient versus wildtype human fibroblasts” value in assay [3] (1-4 μM, 48 hours, then recovery, flow cytometry) is “greater extent of apoptosis in p53-deficient human fibroblasts”. The “sensitivity / killing of p53-deficient human fibroblast cells (FIG. 3 taken together)” value in [3] (shp53 versus shcontrol cells) is given as “preferential killing of p53 deficient cells”. In addition, the “3D spheroid growth, p53-deficient versus wildtype HCT116” value in assay [4] is listed as “greater reduction of 3D p53-deficient HCT116 spheroid growth compared to wildtype spheroid”. Moreover, in assay [5] (48 hours treatment, 6 days recovery), the “susceptibility (apoptotic cells) of p53 null and p53 mutant cancer cells” value is “strongly susceptible to treatment with niclosamide in a dose dependent manner”. Besides, the “cell viability of the remaining (surviving) cells” value in assay [5] (certain cell lines) is reported as “differentially reduced cell viability of the remaining cells in certain cell lines”. In addition, the “size of the teratomas versus DMSO control” value in assay [6] is given as “significant reduction in the size of the teratomas”. The “tumour growth (tumour volume) versus PBS control” value in assay [7] is “reduction in tumour growth”. For the same compound, in assay [8], the “niclosamide sensitivity of p53 mutant MEF cells (bright field, crystal violet)” value is reported as “p53 mutant MEF cells are sensitive to niclosamide”. For the same compound, in the assay with Caspase-3, the “induction of cleaved caspase in p53 deficient HCT116 cells (western blot)” value is “clear induction of the cleaved caspase in p53 minus”.
